Assay results as given in patent US12550899B2, “Topramezone derivative and use thereof” (priority 2023, dated 2026).
Entries after “also recorded” stand apart in the source; their conditions may differ.

Experiments:
[1] = test system: Digitaria sanguinalis; assay: Laboratory rainfastness test (foliar spray, simulated rainfall); type: in vivo; conditions: for Average fresh weight / Control efficacy: 20 days post-application; for Rainfastness compared with Topramezone (in words): in vivo
Protocol: Refer to the “Pesticides guidelines for laboratory bioactivity tests Part 4: Foliar spray application test for herbicide activity, NY/T 1155.4-2006”.
(§1) The soil used for the test was a mixture of surface 20 cm loam and vermiculite, mixed in a volume ratio of 3:1 to form a culture soil. The test weeds were cultured in a glass greenhouse with a temperature ranging from 25° C. to 35° C. and under natural light.
(§2) A measured quantity of Digitaria sanguinalis seeds were sown in plastic pots with a diameter of 9 cm, and covered with 1-2 mm of soil. The ports were then placed in enamel trays filled with water, and watered by bottom irrigation. After the water seeped to the soil surface, the pots were transferred to the glass greenhouse for standby.
(§3) Five dosages were set for Compound I, Compound II and the control herbicide Topramezone, which were 3.75, 7.5, 15, 30 and 60 grams of active ingredient per hectare respectively. In addition, a blank control was also prepared.
(§4) The required amount of the herbicide was accurately measured out and directly added with water, which was diluted to the required dosage by using the serial dilution method for standby.
(§5) The test was conducted on Digitaria sanguinalis at the two-leaf and one-heart stage, with the stems and leaves both sprayed uniformly. The ASS-4 automatic control spraying system with a fan-shaped nozzle was used indoors for herbicide application. Depending on the nozzle pressure and flow rate, 50 mL of herbicide solution was applied to a spraying area of 1.1 m^2 (which was equivalent to the water consumption of 30 L per mu). The system's operating speed was calibrated. The plastic pots to be treated were arranged evenly on the spraying platform to ensure uniform treatment. The spray pressure was set to 0.35 MPa, and the flow rate of the fan-shaped nozzle was set to 800 mL/min. The spraying was carried out in sequence from the low dosage to the high dosage. Each treatment was repeated four times.
The rainfastness test was set as follows: at 0.5 hours, 1.0 hour, 3.0 hours, and 6.0 hours after the application of the herbicide, the weeds that have already been sprayed with the herbicide were subjected to stem and leaf showering with a specific shower equipment simulating rainfall. Weeds that were not subjected to the showering treatment served as the control group.
(§6) The damage symptoms of the weeds (such as growth inhibition, chlorosis, malformation, etc.) were carefully recorded at 3, 7, 10, and 20 days after herbicide application. A visual comparison of the herbicide effectiveness was made after simulated rainfall at different time intervals. At 20 days post-application, the fresh weight of the aboveground parts of the weeds from each treatment group was measured, and the fresh weight control efficacy was calculated.
The treatment results were calculated according to the following formula: weed fresh weight control efficacy (%)=(control fresh weight−treatment fresh weight)/control fresh weight×100. A DPS statistical software was used to conduct regression analysis on the logarithmic values of the herbicide dosage and the probit values of the weed fresh weight control efficacy, and the correlation coefficient, GR50, GR90, and the 95% confidence interval were calculated.

[2] = test system: grassy weeds and broadleaf weeds; assay: Laboratory bioactivity efficacy test 2.2, visual observation of weeds; type: in vivo
Protocol: • grassy weeds: Digitaria sanguinalis, Eleusine indica, Echinochloa crusgalli; • Broadleaf weeds: Portulaca oleracea, Abutilon theophrasti medicus. 2.2.2 Test Conditions
as §1
as §2, with “Quantified seeds” for “A measured quantity”, “sanguinalis, Eleusine indica, Echinochloa crusgalli, Portulaca oleracea, and Abutilon theophrasti medicus” for “sanguinalis seeds”
as §3, §4
as §5, with “grassy weeds” for “Digitaria sanguinalis”, “one-heart stage, Abutilon theophrasti medicus at the 2-true-leaf stage, and Portulaca oleracea at the 3-5-leaf” for “one-heart”, “repeated two to” for “repeated”
The herbicide was applied once. After spraying, the pots were air-dried for one day and then placed in the glass greenhouse. Regular watering was conducted to maintain moisture.
as §6, with “made.” for “made after simulated rainfall at different time intervals.”

[3] = No spraying (no simulated rainfall), dosage 3.75 g/hectare
[4] = No spraying (no simulated rainfall), dosage 7.5 g/hectare
[5] = No spraying (no simulated rainfall), dosage 15 g/hectare
[6] = No spraying (no simulated rainfall), dosage 30 g/hectare
[7] = No spraying (no simulated rainfall), dosage 60 g/hectare
[8] = Spraying water 0.5 hour after herbicide application, dosage 3.75 g/hectare
[9] = Spraying water 0.5 hour after herbicide application, dosage 7.5 g/hectare
[10] = Spraying water 0.5 hour after herbicide application, dosage 15 g/hectare
[11] = Spraying water 0.5 hour after herbicide application, dosage 30 g/hectare
[12] = Spraying water 0.5 hour after herbicide application, dosage 60 g/hectare
[13] = Spraying water 1.0 hour after herbicide application, dosage 3.75 g/hectare
[14] = Spraying water 1.0 hour after herbicide application, dosage 7.5 g/hectare
[15] = Spraying water 1.0 hour after herbicide application, dosage 15 g/hectare
[16] = Spraying water 1.0 hour after herbicide application, dosage 30 g/hectare
[17] = Spraying water 1.0 hour after herbicide application, dosage 60 g/hectare
[18] = Spraying water 3.0 hour after herbicide application, dosage 3.75 g/hectare
[19] = Spraying water 3.0 hour after herbicide application, dosage 7.5 g/hectare
[20] = Spraying water 3.0 hour after herbicide application, dosage 15 g/hectare
[21] = Spraying water 3.0 hour after herbicide application, dosage 30 g/hectare
[22] = Spraying water 3.0 hour after herbicide application, dosage 60 g/hectare
[23] = Spraying water 6.0 hour after herbicide application, dosage 3.75 g/hectare
[24] = Spraying water 6.0 hour after herbicide application, dosage 7.5 g/hectare
[25] = Spraying water 6.0 hour after herbicide application, dosage 15 g/hectare
[26] = Spraying water 6.0 hour after herbicide application, dosage 30 g/hectare
[27] = Spraying water 6.0 hour after herbicide application, dosage 60 g/hectare
[28] = rain 0.5 h, 1.0 h and 3.0 h after application
[29] = 3 to 7 days after application, grassy weeds and broadleaf weeds like Portulaca oleracea

SMILES: COC(=O)OC(C)Oc1c(C(=O)c2ccc(S(C)(=O)=O)c(C3=NOCC3)c2C)cnn1C (stereo not shown) [Compound I, 1-((4-(3-(4,5-dihydroisoxazol-3-yl)-2-methyl-4-(methylsulfonyl)benzoyl)-1-methyl-1H-pyrazol-5-yl)oxy)ethyl methyl carbonate]
- Average fresh weight [1, 3]: 6.3 g
- Control efficacy [1, 3]: 3.1%
- Average fresh weight [1, 4]: 5.1 g
- Control efficacy [1, 4]: 21.8%
- Average fresh weight [1, 5]: 3.2 g
- Control efficacy [1, 5]: 50.6%
- Average fresh weight [1, 6]: 2.6 g
- Control efficacy [1, 6]: 60.5%
- Average fresh weight [1, 7]: 1.1 g
- Control efficacy [1, 7]: 82.8%
- Average fresh weight [1, 8]: 6.1 g
- Control efficacy [1, 8]: 6.9%
- Average fresh weight [1, 9]: 5.1 g
- Control efficacy [1, 9]: 22.2%
- Average fresh weight [1, 10]: 3.6 g
- Control efficacy [1, 10]: 45.6%
- Average fresh weight [1, 11]: 2.6 g
- Control efficacy [1, 11]: 60.9%
- Average fresh weight [1, 12]: 1.1 g
- Control efficacy [1, 12]: 82.8%
- Average fresh weight [1, 13]: 6.1 g
- Control efficacy [1, 13]: 7.3%
- Average fresh weight [1, 14]: 5.2 g
- Control efficacy [1, 14]: 21.1%
- Average fresh weight [1, 15]: 3.9 g
- Control efficacy [1, 15]: 41.0%
- Average fresh weight [1, 16]: 2.3 g
- Control efficacy [1, 16]: 64.8%
- Average fresh weight [1, 17]: 0.9 g
- Control efficacy [1, 17]: 86.6%
- Average fresh weight [1, 18]: 5.6 g
- Control efficacy [1, 18]: 14.9%
- Average fresh weight [1, 19]: 4.7 g
- Control efficacy [1, 19]: 28.7%
- Average fresh weight [1, 20]: 3.3 g
- Control efficacy [1, 20]: 50.2%
- Average fresh weight [1, 21]: 2.7 g
- Control efficacy [1, 21]: 58.2%
- Average fresh weight [1, 22]: 0.9 g
- Control efficacy [1, 22]: 86.6%
- Average fresh weight [1, 23]: 6.0 g
- Control efficacy [1, 23]: 8.4%
- Average fresh weight [1, 24]: 5.0 g
- Control efficacy [1, 24]: 23.4%
- Average fresh weight [1, 25]: 2.7 g
- Control efficacy [1, 25]: 58.6%
- Average fresh weight [1, 26]: 2.3 g
- Control efficacy [1, 26]: 64.4%
- Average fresh weight [1, 27]: 1.1 g
- Control efficacy [1, 27]: 82.8%
- Rainfastness compared with Topramezone (in words) [1]: significantly better rainfastness
- Effect of rain on control efficacy (in words) [1, 28]: remained stable
- Effect of rain on control efficacy (in words) ([1]; rain 0.5 h after application): little impact; also recorded: almost unaffected
- Visual observation of weeds [2, 29]: gradually became whitened and withered
- Visual observation of weeds ([2]; 10 days after application): excellent treatment effects
- Visual observation of weeds ([2]; 20 days after application): dried up and died

SMILES: Cc1c(C(=O)c2cnn(C)c2OC(=O)C(C)(C)C)ccc(S(C)(=O)=O)c1C1=NOCC1 [Compound II, 4-(3-(4,5-dihydroisoxazol-3-yl)-2-methyl-4-(methylsulfonyl)benzoyl)-1-methyl-1H-pyrazol-5-yl pivalate]
- Average fresh weight [1, 3]: 6.0 g
- Control efficacy [1, 3]: 8.8%
- Average fresh weight [1, 4]: 4.7 g
- Control efficacy [1, 4]: 28.7%
- Average fresh weight [1, 5]: 3.4 g
- Control efficacy [1, 5]: 47.9%
- Average fresh weight [1, 6]: 2.3 g
- Control efficacy [1, 6]: 64.4%
- Average fresh weight [1, 7]: 1.0 g
- Control efficacy [1, 7]: 84.7%
- Average fresh weight [1, 8]: 6.2 g
- Control efficacy [1, 8]: 5.7%
- Average fresh weight [1, 9]: 4.6 g
- Control efficacy [1, 9]: 29.1%
- Average fresh weight [1, 10]: 3.6 g
- Control efficacy [1, 10]: 45.2%
- Average fresh weight [1, 11]: 2.5 g
- Control efficacy [1, 11]: 62.1%
- Average fresh weight [1, 12]: 0.6 g
- Control efficacy [1, 12]: 90.8%
- Average fresh weight [1, 13]: 5.9 g
- Control efficacy [1, 13]: 10.0%
- Average fresh weight [1, 14]: 5.3 g
- Control efficacy [1, 14]: 18.8%
- Average fresh weight [1, 15]: 3.3 g
- Control efficacy [1, 15]: 49.0%
- Average fresh weight [1, 16]: 2.4 g
- Control efficacy [1, 16]: 64.0%
- Average fresh weight [1, 17]: 0.8 g
- Control efficacy [1, 17]: 88.5%
- Average fresh weight [1, 18]: 6.0 g
- Control efficacy [1, 18]: 8.8%
- Average fresh weight [1, 19]: 5.1 g
- Control efficacy [1, 19]: 22.2%
- Average fresh weight [1, 20]: 3.9 g
- Control efficacy [1, 20]: 40.6%
- Average fresh weight [1, 21]: 2.0 g
- Control efficacy [1, 21]: 70.1%
- Average fresh weight [1, 22]: 1.0 g
- Control efficacy [1, 22]: 84.7%
- Average fresh weight [1, 23]: 6.1 g
- Control efficacy [1, 23]: 6.5%
- Average fresh weight [1, 24]: 4.7 g
- Control efficacy [1, 24]: 27.6%
- Average fresh weight [1, 25]: 3.6 g
- Control efficacy [1, 25]: 44.8%
- Average fresh weight [1, 26]: 2.2 g
- Control efficacy [1, 26]: 66.7%
- Average fresh weight [1, 27]: 0.8 g
- Control efficacy [1, 27]: 87.4%
- Rainfastness compared with Topramezone (in words) [1]: significantly better rainfastness
- Effect of rain on control efficacy (in words) [1, 28]: remained stable
- Effect of rain on control efficacy (in words) ([1]; rain 0.5 h after application): little impact; also recorded: almost unaffected
- Visual observation of weeds [2, 29]: gradually became whitened and withered
- Visual observation of weeds ([2]; 10 days after application): excellent treatment effects
- Visual observation of weeds ([2]; 20 days after application): dried up and died
